Measured values taken from patent EP0390558B1, “Aromatase inhibiting 4(5)-imidazoles” (ORION-YHTYMÄ OY, priority 1989, dated 1990).

Target: T1, Human aromatase enzyme (Homo sapiens, UniProt P11511)
T1 construct: The enzyme preparation was used without further purification; from tissue; host or cells: human placenta, microsomal fraction (100000 x g precipitate)
T1 sequence (P11511 1-503): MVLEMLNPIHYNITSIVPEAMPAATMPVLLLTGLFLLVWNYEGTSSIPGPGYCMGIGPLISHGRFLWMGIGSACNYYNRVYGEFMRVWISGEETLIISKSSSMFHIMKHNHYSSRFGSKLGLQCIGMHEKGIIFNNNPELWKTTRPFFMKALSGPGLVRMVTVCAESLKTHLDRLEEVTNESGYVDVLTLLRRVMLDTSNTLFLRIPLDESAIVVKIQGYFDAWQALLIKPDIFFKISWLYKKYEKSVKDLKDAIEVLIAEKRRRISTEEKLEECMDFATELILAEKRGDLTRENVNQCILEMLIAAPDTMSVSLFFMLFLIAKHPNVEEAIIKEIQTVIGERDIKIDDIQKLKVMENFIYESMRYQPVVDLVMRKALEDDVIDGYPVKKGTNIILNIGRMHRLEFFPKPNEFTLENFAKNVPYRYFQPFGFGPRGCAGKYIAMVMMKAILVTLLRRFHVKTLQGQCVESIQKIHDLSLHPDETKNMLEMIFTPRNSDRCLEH
Test: In vitro aromatase inhibition assay (3H2O release from 1,2[3H]-androstene-3,17-dione)
Type: biochemical

Row | SMILES | IC50 [µM]
1 | Cc1cc(C)cc(CCCCC(c2ccc(F)cc2)c2c[nH]cn2)c1 (centres unmarked) [Compound 5b, 4-[5-(3,5-dimethylphenyl)-1-(4-fluorophenyl)-pentyl]-1H-imidazole] | 7.5
2 | c1ccc(CCC(c2ccccc2)c2cncn2Cc2ccccc2)cc1 (centres unmarked) [Compound 8b, 1-benzyl-5-(1,3-diphenylpropyl)-1H-imidazole] | 30
3 | COc1cccc(CCCCC(c2ccc(F)cc2)c2c[nH]cn2)c1 (centres unmarked) [Compound 11b, 4-[1-(4-fluorophenyl)-5-(3-methoxyphenyl)pentyl]-1H-imidazole] | 2.6
4 | COc1ccc(CCCCC(c2ccc(F)cc2)c2c[nH]cn2)cc1 (centres unmarked) [Compound 12b, 4-[1-(4-fluorophenyl)-5-(4-methoxyphenyl)pentyl]-1H-imidazole] | 3
5 | Cc1cccc(C)c1CCCCC(c1ccc(F)cc1)c1c[nH]cn1 (centres unmarked) [Compound 13b, 4-[1-(4-fluorophenyl)-5-(2,6-dimethylphenyl)-pentyl]-1H-imidazole] | 7.7
